Laboratory results from patent US20110118337A1, “Method of Using Compositions Comprising MIR-192 and/or MIR-215 for the Treatment of Cancer” (Merck Sharp & Dohme Corp., priority 2008, published 2011).
Values joined by “and” are separate entries in the source; they are usually repeats but may differ in a detail not shown here. Equal entries are not always repeated.

Columns and labels:
[1] = system: HCT116DICER^ex5 cells; test: Cell cycle distribution by propidium iodide FACS after miR-192 duplex transfection (untreated, nocodazole or aphidicolin); type: cell-based, human; details: for % Cells with 2N (G1/S) / % Cells with 4N (G2/M): 10 nM duplex, 66 hours after transfection
Experimental: At 48 hours post transfection, cells were left untreated, treated with nocodazole (100 ng/mL, Sigma-Aldrich), or treated with aphidicolin (2 μg/mL, Sigma-Aldrich) for an additional 18 hours before harvesting. The cells were then trypsinized, collected, fixed and stained with a propidium iodide solution. BrdU-labeling was performed according to the manufacturer's instructions (BD-Pharmigen). For phospho-histone H3 analysis, cells were fixed and permeabilized with IPF buffer (100 mM PIPES pH 6.8, 10 mM EDTA, 1 mM MgCl2, 0.2% Triton X-100, 4% formaldehyde) and stained with propidium iodide and anti-phospho-histone H3 antibody conjugated to Alexa-488 (Cell Signaling Technology). The cells were analyzed using a FACSCalibur flow cytometer (Beacton Dickinson) and FlowJo software (Tree Star, Inc.).

[2] = system: HCT116 DICER^ex5 cells; test: Gene expression profiling (Agilent 44K microarray) after transfection of miR-192/miR-215 duplex mimetics; type: cell-based, human; details: 10 nM, vs mock-transfected
Experimental: Synthetic duplex mimetics of miR-192 and miR-215 (sequences shown in TABLE 1) or a control target Luciferase siRNA (Luc), shown in TABLE 1, were transfected (10 nM final concentration) into HCT116 DICER^ex5, a human colorectal cancer cell line with hypomorphic DICER function (Cummins, J. M., et al., PNAS 103:3687-3692 (2006)). The transfections were carried out using Lipofectamine RNAiMax (Invitrogen) per the manufacturer's instructions. At 10 and 24 hours post-transfection, total RNA was extracted and gene expression profiling was carried out with the Agilent 44K microarray in comparison to RNA isolated from mock-transfected HCT116DICER^ex5 cells. Microarray analysis was carried out as described in Linsley, P. S., et al., Mol Cell Biol 27:2240-2252 (2007). Gene expression data analysis was done either with the Rosetta Resolver gene expression analysis software (Version 7.1 Rosetta Biosoftware).

[3] = system: miR-192 target transcripts; test: Down-regulation of miR-192 target transcripts; type: cell-based
[4] = compared with mock or mutant miR-192-transfected cells

Substance: miR-192: Synthetic duplex mimetic of miR-192, guide CUGACCUAUGAAUUGACAGCC (SEQ ID NO:1), passenger SEQ ID NO:7 (sense CUGUCAAUUCAUCGGUCUGAU; listed as RNA, chemistry not given here; listed as Homo sapiens)
- % Cells with 2N (G1/S) ([1]; aphidicolin 2 μg/mL 18 hours): 46.3%
- % Cells with 4N (G2/M) ([1]; aphidicolin 2 μg/mL 18 hours): 47.4%
- G2/M phase population [1, 4]: increase
- S phase population [1, 4]: significant decrease
- % Cells with 2N (G1/S) ([1]; nocodazole 100 ng/mL 18 hours): 36% and 36.3%
- % Cells with 4N (G2/M) ([1]; nocodazole 100 ng/mL 18 hours): 56.5%
- accumulation in the G2/M phase ([1]; treated with aphidicolin): a significant fraction
- % Cells with 2N (G1/S) ([1]; untreated): 48.6%
- % Cells with 4N (G2/M) ([1]; untreated): 44.6%
- BCL2 transcript fold change ([2]; 10 hr): −1.1 fold change
- BRCA1 transcript fold change ([2]; 10 hr): −1.02 fold change
- CDC7 transcript fold change ([2]; 10 hr): −1.63 fold change
- CDC14A transcript fold change ([2]; 10 hr): −1.02 fold change
- CDC73 transcript fold change ([2]; 10 hr): −1.2 fold change
- CRK transcript fold change ([2]; 10 hr): −1.42 fold change
- CTCF transcript fold change ([2]; 10 hr): −1.59 fold change
- CUL5 transcript fold change ([2]; 10 hr): −1.16 fold change
- DBF4B transcript fold change ([2]; 10 hr): −1.12 fold change
- DEK transcript fold change ([2]; 10 hr): −1.21 fold change
- DLG5 transcript fold change ([2]; 10 hr): −1.99 fold change
- DTL transcript fold change ([2]; 10 hr): −1.11 fold change
- EMP1 transcript fold change ([2]; 10 hr): −1.28 fold change
- ERCC3 transcript fold change ([2]; 10 hr): −1.3 fold change
- EXTL2 transcript fold change ([2]; 10 hr): −1.2 fold change
- FGF2 transcript fold change ([2]; 10 hr): −1.48 fold change
- HOXA10 transcript fold change ([2]; 10 hr): −1.7 fold change
- HRH1 transcript fold change ([2]; 10 hr): −1.36 fold change
- KIF14 transcript fold change ([2]; 10 hr): −1.03 fold change
- KIF23 transcript fold change ([2]; 10 hr): −1.01 fold change
- LMNB2 transcript fold change ([2]; 10 hr): −1.38 fold change
- MACF1 transcript fold change ([2]; 10 hr): −1.3 fold change
- MAD2L transcript fold change ([2]; 10 hr): −1.18 fold change
- MCM3 transcript fold change ([2]; 10 hr): −1.51 fold change
- MCM6 transcript fold change ([2]; 10 hr): −1.01 fold change
- MCM10 transcript fold change ([2]; 10 hr): −1.77 fold change
- MIS12 transcript fold change ([2]; 10 hr): −1.25 fold change
- MKI67 transcript fold change ([2]; 10 hr): −1.08 fold change
- MPHOSPH1 transcript fold change ([2]; 10 hr): −1.32 fold change
- MTSS1 transcript fold change ([2]; 10 hr): −1.06 fold change
- NBN transcript fold change ([2]; 10 hr): −1.49 fold change
- NCAPH transcript fold change ([2]; 10 hr): 1.01 fold change
- NEK1 transcript fold change ([2]; 10 hr): −1.12 fold change
- NFIB transcript fold change ([2]; 10 hr): −1.47 fold change
- NFYA transcript fold change ([2]; 10 hr): −1.22 fold change
- NIN transcript fold change ([2]; 10 hr): −1.1 fold change
- PAFAH1B1 transcript fold change ([2]; 10 hr): −1.83 fold change
- PAPD5 transcript fold change ([2]; 10 hr): −1.32 fold change
- PFTK1 transcript fold change ([2]; 10 hr): 1.03 fold change
- PIM1 transcript fold change ([2]; 10 hr): −1.2 fold change
- PLAU transcript fold change ([2]; 10 hr): −1.74 fold change
- PLS3 transcript fold change ([2]; 10 hr): −1.44 fold change
- POLQ transcript fold change ([2]; 10 hr): −1.03 fold change
- POLS transcript fold change ([2]; 10 hr): −1.23 fold change
- PPP1CA transcript fold change ([2]; 10 hr): −1.83 fold change
- PRPF38A transcript fold change ([2]; 10 hr): −1.11 fold change
- RACGAP1 transcript fold change ([2]; 10 hr): −1.34 fold change
- RAD1 transcript fold change ([2]; 10 hr): −1.2 fold change
- RAD51 transcript fold change ([2]; 10 hr): 1.08 fold change
- RAP1GAP transcript fold change ([2]; 10 hr): −1.11 fold change
- RB1 transcript fold change ([2]; 10 hr): −1.21 fold change
- SEPT10 transcript fold change ([2]; 10 hr): −1.59 fold change
- SERTAD2 transcript fold change ([2]; 10 hr): −1.12 fold change
- SH3BP4 transcript fold change ([2]; 10 hr): −1.52 fold change
- SMARCB1 transcript fold change ([2]; 10 hr): −1.16 fold change
- TDG transcript fold change ([2]; 10 hr): −1.47 fold change
- TDP1 transcript fold change ([2]; 10 hr): −1.44 fold change
- TOP1 transcript fold change ([2]; 10 hr): −1.52 fold change
- TUBGCP3 transcript fold change ([2]; 10 hr): −1.26 fold change
- USP1 transcript fold change ([2]; 10 hr): −1.13 fold change
- UVRAG transcript fold change ([2]; 10 hr): −1.2 fold change
- BCL2 transcript fold change ([2]; 24 hr): −1.46 fold change
- BRCA1 transcript fold change ([2]; 24 hr): −1.35 fold change
- CDC7 transcript fold change ([2]; 24 hr): −2.05 fold change
- CDC14A transcript fold change ([2]; 24 hr): −1.16 fold change
- CDC73 transcript fold change ([2]; 24 hr): −1.17 fold change
- CRK transcript fold change ([2]; 24 hr): −1.44 fold change
- CTCF transcript fold change ([2]; 24 hr): −1.78 fold change
- CUL5 transcript fold change ([2]; 24 hr): −1.35 fold change
- DBF4B transcript fold change ([2]; 24 hr): −1.33 fold change
- DEK transcript fold change ([2]; 24 hr): −1.47 fold change
- DLG5 transcript fold change ([2]; 24 hr): −2.22 fold change
- DTL transcript fold change ([2]; 24 hr): −1.38 fold change
- EMP1 transcript fold change ([2]; 24 hr): −1.66 fold change
- ERCC3 transcript fold change ([2]; 24 hr): −1.6 fold change
- EXTL2 transcript fold change ([2]; 24 hr): −1.5 fold change
- FGF2 transcript fold change ([2]; 24 hr): −1.83 fold change
- HOXA10 transcript fold change ([2]; 24 hr): −2.3 fold change
- HRH1 transcript fold change ([2]; 24 hr): −1.77 fold change
- KIF14 transcript fold change ([2]; 24 hr): −1.42 fold change
- KIF23 transcript fold change ([2]; 24 hr): −1.34 fold change
- LMNB2 transcript fold change ([2]; 24 hr): −1.82 fold change
- MACF1 transcript fold change ([2]; 24 hr): −1.64 fold change
- MAD2L transcript fold change ([2]; 24 hr): −1.53 fold change
- MCM3 transcript fold change ([2]; 24 hr): −1.91 fold change
- MCM6 transcript fold change ([2]; 24 hr): −1.33 fold change
- MCM10 transcript fold change ([2]; 24 hr): −2.37 fold change
- MIS12 transcript fold change ([2]; 24 hr): −1.73 fold change
- MKI67 transcript fold change ([2]; 24 hr): −1.4 fold change
- MPHOSPH1 transcript fold change ([2]; 24 hr): −1.87 fold change
- MTSS1 transcript fold change ([2]; 24 hr): −1.47 fold change
- NBN transcript fold change ([2]; 24 hr): −1.27 fold change
- NCAPH transcript fold change ([2]; 24 hr): −1.32 fold change
- NEK1 transcript fold change ([2]; 24 hr): −1.47 fold change
- NFIB transcript fold change ([2]; 24 hr): 1.82 fold change
- NFYA transcript fold change ([2]; 24 hr): −1.35 fold change
- NIN transcript fold change ([2]; 24 hr): 1.38 fold change
- PAFAH1B1 transcript fold change ([2]; 24 hr): −2.22 fold change
- PAPD5 transcript fold change ([2]; 24 hr): −1.44 fold change
- PFTK1 transcript fold change ([2]; 24 hr): −1.33 fold change
- PIM1 transcript fold change ([2]; 24 hr): −1.73 fold change
- PLAU transcript fold change ([2]; 24 hr): −1.95 fold change
- PLS3 transcript fold change ([2]; 24 hr): −1.57 fold change
- POLQ transcript fold change ([2]; 24 hr): −1.18 fold change
- POLS transcript fold change ([2]; 24 hr): −1.39 fold change
- PPP1CA transcript fold change ([2]; 24 hr): −2.18 fold change
- PRPF38A transcript fold change ([2]; 24 hr): −1.17 fold change
- RACGAP1 transcript fold change ([2]; 24 hr): −1.9 fold change
- RAD1 transcript fold change ([2]; 24 hr): −1.37 fold change
- RAD21 transcript fold change ([2]; 24 hr): −1.36 fold change
- RAD51 transcript fold change ([2]; 24 hr): −1.23 fold change
- RAP1GAP transcript fold change ([2]; 24 hr): −1.43 fold change
- RB1 transcript fold change ([2]; 24 hr): −1.45 fold change
- SEPT10 transcript fold change ([2]; 24 hr): −1.98 fold change
- SERTAD2 transcript fold change ([2]; 24 hr): −1.31 fold change
- SH3BP4 transcript fold change ([2]; 24 hr): −1.9 fold change
- SMARCB1 transcript fold change ([2]; 24 hr): −1.3 fold change
- TDG transcript fold change ([2]; 24 hr): −1.52 fold change
- TDP1 transcript fold change ([2]; 24 hr): −1.66 fold change
- TOP1 transcript fold change ([2]; 24 hr): −1.66 fold change
- TUBGCP3 transcript fold change ([2]; 24 hr): −1.52 fold change
- USP1 transcript fold change ([2]; 24 hr): −1.35 fold change
- UVRAG transcript fold change ([2]; 24 hr): −1.38 fold change
- down-regulation of target transcripts [3]: 30-40%
